According to PubChem BioAssay (NCI):
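Each compound was tested at five concentrations against cells in 96-well plates for 48 hours. The concentration for full growth arrest is given as TGI.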

Tests used:
Assay in all cases: NCI tumour cell line growth inhibition, 48 h
[1] = tested on: SR leukemia
[2] = tested on: U251 CNS
[3] = tested on: NCI-H460 lung
[4] = tested on: UO-31 renal
[5] = tested on: MALME-3M melanoma
[6] = tested on: RXF 393 renal
[7] = tested on: SK-MEL-28 melanoma
[8] = tested on: M14 melanoma
[9] = tested on: NCI/ADR-RES ovarian
[10] = tested on: HOP-62 NSCLC

| SMILES | TGI [1] | TGI [2] | TGI [3] | TGI [4] | TGI [5] | TGI [6] | TGI [7] | TGI [8] | TGI [9] | TGI [10] |
| --- | --- | --- | --- | --- | --- | --- | --- | --- | --- | --- |
| COc1ccc(Cn2c(=O)c(OS(=O)(=O)C(F)(F)F)c(C)c3cc4ccccc4cc32)cc1 | > 100 µM | > 100 µM | > 100 µM | > 100 µM | > 100 µM | > 100 µM | > 100 µM | > 100 µM | > 100 µM | > 100 µM |
| CC(=O)OC1C2CCC3CC2C2(SCCS2)C31 (centres undefined) | > 100 µM | > 100 µM | > 100 µM | > 100 µM | > 100 µM | > 100 µM | > 100 µM | > 100 µM | > 100 µM | > 100 µM |
| CC(C)(C)OC(=O)NCC(c1c[nH]c2ccccc12)c1c[nH]c2ccccc12 | 32.4 µM | 29.8 µM | 30.1 µM | 27.4 µM | 33.2 µM | 17.7 µM | 35.3 µM | 29.1 µM | 51.3 µM | 37 µM |
| C/C(CC(O)(C(F)(F)F)C(F)(F)F)=N\O | > 10 µM | > 10 µM | > 10 µM | – | > 10 µM | > 10 µM | > 10 µM | > 10 µM | > 10 µM | > 10 µM |
| CC(C)(C)N=C1C(=O)C2(C)CCC1C2(C)C (centres undefined) | > 100 µM | > 100 µM | > 100 µM | > 100 µM | > 100 µM | > 100 µM | > 100 µM | > 100 µM | > 100 µM | > 100 µM |
| CC1(C)Cc2ccccc2C(C)(Cl)C(=O)N1 (centres undefined) | > 10 µM | > 10 µM | > 10 µM | > 10 µM | > 10 µM | > 10 µM | > 10 µM | > 10 µM | > 10 µM | > 10 µM |
| C/C(=N\Nc1nc2cc(F)ccc2s1)c1ccccn1 | > 100 µM | > 33.3 µM | > 100 µM | 0.314 µM | 23 µM | 6.65 µM | > 100 µM | 4.07 µM | 0.12 µM | > 21.9 µM |
| CC(C)(C)c1cc(C(C)(C)C)c(SC2OC(CO)C(O)C(O)C2O)c(O)c1O (centres undefined) | > 53 µM | 20.3 µM | 10.5 µM | 79.2 µM | 26.9 µM | 14.1 µM | 70.5 µM | > 100 µM | 34.3 µM | 33.9 µM |
| CN1CCC(O)(OC(=O)C(c2ccccc2)C2(O)CCCC2)CC1 (centres undefined) | > 100 µM | > 100 µM | > 100 µM | – | > 100 µM | > 100 µM | > 100 µM | > 100 µM | > 100 µM | > 100 µM |
| C[C@H](CCc1nc(C#N)c(N)o1)[C@H]1CC[C@H]2[C@@H]3CCC4C[C@@H](O)CC[C@]4(C)[C@H]3C[C@@H](O)[C@]12C (some centres undefined) | 29 µM | 26.5 µM | 31.3 µM | 16.6 µM | 28.4 µM | 24.7 µM | 26.6 µM | 34.2 µM | 25 µM | 40.8 µM |
| Oc1ccc(Nc2nc(Cl)c3[nH]cnc3n2)cc1 | > 100 µM | > 100 µM | > 100 µM | > 100 µM | > 100 µM | > 100 µM | – | > 100 µM | > 100 µM | > 100 µM |
| O=C(NNC(=O)c1ccc(Cl)cc1NC(=O)C12CC3CC(CC(C3)C1)C2)c1ccc(Cl)cc1 | 63.8 µM | 45.4 µM | 66.3 µM | 33.7 µM | 38.5 µM | 40.3 µM | – | 57.6 µM | 63.1 µM | 44.4 µM |
| C#CC(O)/C=C/C(O)CCCC(O)CC#CC(O)C#CCCCCC(O)/C=C/CCCC(=O)CCCCCCCCCCCCCCCC(O)C(O)C#CC(=O)O (centres undefined) | > 25 µM | > 25 µM | > 25 µM | > 25 µM | > 25 µM | > 25 µM | > 25 µM | > 25 µM | > 25 µM | > 25 µM |
| CC1=NN(c2ccccc2)C(=O)/C1=C\c1c(C)[nH]n(-c2ccccc2)c1=O | > 100 µM | > 100 µM | > 100 µM | > 100 µM | > 100 µM | > 100 µM | > 100 µM | > 100 µM | > 100 µM | > 100 µM |
| CCOC(=O)c1c(SC(=O)c2ccc(Cl)cc2)n(-c2ccccc2)c(=S)n(-c2ccccc2)c1=O | > 100 µM | > 100 µM | > 100 µM | – | > 100 µM | > 100 µM | > 100 µM | > 100 µM | > 100 µM | > 100 µM |
| C[C@@H]([C@H]1CC[C@@]2(C)[C@@H]3CC[C@@H]4C(=CC3=CC[C@]12C)CC[C@H](N(C)C)C4(C)C)N(C)C | > 100 µM | > 100 µM | > 100 µM | – | > 100 µM | > 100 µM | > 100 µM | > 100 µM | > 100 µM | > 100 µM |
| COC(=O)[C@@H]1C=CCN1S(=O)(=O)c1ccc(C)cc1 | 58.8 µM | > 100 µM | > 100 µM | > 100 µM | > 100 µM | > 100 µM | > 100 µM | > 100 µM | > 100 µM | > 100 µM |
